This assay concerns Saccharomyces cerevisiae INVSc1 yeast cells. The assay is described as follows: Yeast growth inhibition experiment (Quant-Screen Yeast Assay and OD600). As to conditions: INVSc1 in YPD medium, 6 hours at 30° C., different concentrations. The class given is cell-based. How it is done:
Serial dilutions of a yeast cell suspension prepared in culture media was placed in each well of a 96-well plate (100 μl/well). Next, 100 μl of reaction buffer containing the CDP-Star® substrate was added to each well. The light emission was then immediately measured in a luminometer (TR717®) (1 sec/well) or NorthStar® (60 sec/plate).
An equivalent aliquot of yeast cell suspension (INVSc1) were inoculated into tubes with 2 ml of minimum medium containing various concentrations of leucine and were grown overnight at 30° C. with shaking. The overnight cultures were then measured by a spectrophotometer at 600 nm to estimate cell density. Next, each of the overnight cultures was transferred (100 μl/well) into a 96-well microplate in triplicate. An equal volume of reaction buffer was added. The plate was placed in TR717™ (a luminometer) to measure total light emission.
100 μof log phase growing yeast cells, INVSc1, were inoculated into tubes with 1 ml of YPD medium containing different concentrations of actinomycin D, a […]. The cultures were grown at 30° C. with shaking for 6 hours. The cultures were measured for OD600 in a spectrophotometer. Next, the cells were transferred (100 μl/well) in triplicate in a 96-well microplate. The assay was performed as in the Growth Stimulation Experiment set forth above.

Each structure is given as a SMILES string. Numbered stars: 1 amine (or outer) side, 2 acyl side, 3 side chain; on linkers, the order of the positions; unused ones are H or OH. Bridge positions count the residues as written; N and C are the ends. Square brackets hold non-standard residues; d marks the D form. Peptide text beside a SMILES is read from it. I, II: the chains in the order shown. Actinocin(9to1) = Cc1c2oc3c(C)ccc(C(=O)[*:1])c3nc-2c(C(=O)[*:2])c(N)c1=O; NMeV = CN[C@H](C(=O)O)C(C)C; Sar = CNCC(=O)O

As to `Cc1c2oc3c(C)ccc(C(=O)N[C@@H]4C(=O)N[C@H](C(C)C)C(=O)N5CCC[C@H]5C(=O)N(C)CC(=O)N(C)[C@@H](C(C)C)C(=O)O[C@@H]4C)c3nc-2c(C(=O)N[C@@H]2C(=O)N[C@H](C(C)C)C(=O)N3CCC[C@H]3C(=O)N(C)CC(=O)N(C)[C@@H](C(C)C)C(=O)O[C@@H]2C)c(N)c1=O` [actinomycin D] (I: T[dV]P[Sar][NMeV] / II: T[dV]P[Sar][NMeV]; ester I:1-I:C, II:1-II:C; linker I:N-II:N via Actinocin(9to1)), the “O.D. measurement (OD600)” value was “declined with increasing concentrations” and the “signal intensity (Quant-Screen Yeast Assay, endogenous alkaline phosphatase, light emission)” value is listed as “declined with increasing concentrations”.

The record behind these values is patent publication US20020132364A1, “Quant-screentm chemiluminescent assays” (priority 2001, published 2002).
